Experimental data: US9284333B2, “Fused pyrroledicarboxamides and their use as pharmaceuticals” (SANOFI, priority 2012, dated 2016)

Target: Human TASK-1 channels (Homo sapiens (Human), UniProt O14649)
Test: Determination of the activity on the TASK-1 channel in Xenopus oocytes (two-microelectrode voltage clamp)
Type: cell-based
Conditions: compound concentration 5 μM
Summary of the method: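 Current during 500 ms pulses to 40 mV from a −90 mV hold was recorded in oocytes expressing human TASK-1 for two days after cRNA injection. Compounds were added cumulatively to the ND96 bath (pH 7.4, room temperature). IC50 came from dose-response fitting of inhibition relative to pre-compound current.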

Sequence of Human TASK-1 channels (O14649 whole entry): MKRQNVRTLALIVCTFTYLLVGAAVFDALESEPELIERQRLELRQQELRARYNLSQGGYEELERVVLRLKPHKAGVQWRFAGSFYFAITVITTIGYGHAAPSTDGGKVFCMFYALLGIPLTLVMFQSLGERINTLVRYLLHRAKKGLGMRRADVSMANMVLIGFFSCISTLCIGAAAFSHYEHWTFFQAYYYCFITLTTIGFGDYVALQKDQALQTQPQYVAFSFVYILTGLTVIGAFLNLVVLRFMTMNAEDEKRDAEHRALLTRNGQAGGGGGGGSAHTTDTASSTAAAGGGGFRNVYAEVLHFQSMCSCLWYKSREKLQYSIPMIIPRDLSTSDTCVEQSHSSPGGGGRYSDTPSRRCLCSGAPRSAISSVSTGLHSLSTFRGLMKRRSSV

| inhibition at 5 µM [%] | SMILES |
| --- | --- |
| 71 | CC[C@@H](NC(=O)c1cc(C(=O)NC(C)c2nnnn2CC)n2c1COCC2)c1ccccc1 (stereo partly drawn) [16rr, 3,4-Dihydro-1H-pyrrolo[2,1-c][1,4]oxazine-6,8-dicarboxylic acid 6-{[1-(1-ethyl-1H-tetrazol-5-yl)-ethyl]-amide} 8-[((R)-1-phenyl-propyl)-amide]] |

Same assay, conditions: human TASK-1 expressed in Xenopus oocytes, room temperature; read-out: IC50 value for TASK-1 inhibition

| SMILES | IC50 [µM] |
| --- | --- |
| CC[C@@H](NC(=O)c1cc(C(=O)N2CCCCC2)n2c1CCCC2)c1ccccc1 [16mi, 3-(Piperidine-1-carbonyl)-5,6,7,8-tetrahydro-indolizine-1-carboxylic acid ((R)-1-phenyl-propyl)-amide] | 0.59 |
| C[C@@H](NC(=O)c1cc(C(=O)N[C@H](C)c2ccc(F)cc2)n2c1COCC2)c1cccc(F)c1 [16do, 3,4-Dihydro-1H-pyrrolo[2,1-c][1,4]oxazine-6,8-dicarboxylic acid 6-{[(R)-1-(4-fluoro-phenyl)-ethyl]-amide} 8-{[(R)-1-(3-fluoro-phenyl)-ethyl]-amide}] | 0.19 |
| CC[C@@H](NC(=O)c1cc(C(=O)NCCC2CC2)n2c1COCC2)c1ccccc1 [16gk, 3,4-Dihydro-1H-pyrrolo[2,1-c][1,4]oxazine-6,8-dicarboxylic acid 6-[(2-cyclopropyl-ethyl)-amide] 8-[((R)-1-phenyl-propyl)-amide]] | 0.036 |
| CC[C@@H](NC(=O)c1cc(C(=O)N2CCC[C@@H]2C)n2c1COCC2)c1ccccc1Cl [16q, 6-((S)-2-Methyl-pyrrolidine-1-carbonyl)-3,4-dihydro-1H-pyrrolo[2,1-c][1,4]oxazine-8-carboxylic acid [(R)-1-(2-chloro-phenyl)-propyl]-amide] | 0.064 |
| CC[C@@H](NC(=O)c1cc(C(=O)NCc2nccs2)c2n1CCOC2)c1ccccc1 [16jt, 3,4-Dihydro-1H-pyrrolo[2,1-c][1,4]oxazine-6,8-dicarboxylic acid 6-[((R)-1-phenyl-propyl)-amide] 8-[(thiazol-2-ylmethyl)-amide]] | 0.15 |
| CC[C@@H](NC(=O)c1cc(C(=O)N2CCC[C@@H]2c2ccc(OC)nc2)n2c1COCC2)c1ccccc1 [16fl, 6-[(R)-2-(6-Methoxy-pyridin-3-yl)-pyrrolidine-1-carbonyl]-3,4-dihydro-1H-pyrrolo[2,1-c][1,4]oxazine-8-carboxylic acid ((R)-1-phenyl-propyl)-amide] | 0.24 |
| CC[C@@H](NC(=O)c1cc(C(=O)N2CCCC2c2cc(C)no2)n2c1COCC2)c1ccccc1 (stereo partly drawn) [16eq, 6-[2-(3-Methyl-isoxazol-5-yl)-pyrrolidine-1-carbonyl]-3,4-dihydro-1H-pyrrolo[2,1-c][1,4]oxazine-8-carboxylic acid ((R)-1-phenyl-propyl)-amide] | 0.48 |
| C[C@H](NC(=O)c1cc(C(=O)N[C@H](C)c2ccc(F)cc2)n2c1COCC2)c1ncccn1 (racemic) [16dx, 3,4-Dihydro-1H-pyrrolo[2,1-c][1,4]oxazine-6,8-dicarboxylic acid 6-{[(R)-1-(4-fluoro-phenyl)-ethyl]-amide} 8-[((S)-1-pyrimidin-2-yl-ethyl)-amide]] | 1.2 |
| CC[C@@H](NC(=O)c1cc(C(=O)NCc2c(C)noc2C)n2c1COCC2)c1ccccc1 [16pq, 3,4-Dihydro-1H-pyrrolo[2,1-c][1,4]oxazine-6,8-dicarboxylic acid 6-[(3,5-dimethyl-isoxazol-4-ylmethyl)-amide] 8-[((R)-1-phenyl-propyl)-amide]] | 0.65 |
| CC[C@@H](NC(=O)c1cc(C(=O)N[C@H](CC)c2ccc(OC)nc2)n2c1COCC2)c1ccccc1 [16j, 3,4-Dihydro-1H-pyrrolo[2,1-c][1,4]oxazine-6,8-dicarboxylic acid 6-{[(R)-1-(6-methoxy-pyridin-3-yl)-propyl]-amide} 8-[((R)-1-phenyl-propyl)-amide]] | 0.2 |
| CC[C@@H](NC(=O)c1cc(C(=O)NC(C)c2nnnn2C)n2c1COCC2)c1ccccc1 (stereo partly drawn) [16ro, 3,4-dihydro-1H-pyrrolo[2,1-c][1,4]oxazine-6,8-dicarboxylic acid 6-{[1-(1-methyl-1H-tetrazol-5-yl)-ethyl]-amide} 8-[((R)-1-phenyl-propyl)-amide]] | 2.8 |
| CC[C@@H](NC(=O)c1cc(C(=O)NC(C)c2ncccn2)c2n1CCOC2)c1ccc(F)cc1Cl (stereo partly drawn) [16kp, 3,4-Dihydro-1H-pyrrolo[2,1-c][1,4]oxazine-6,8-dicarboxylic acid 6-{[(R)-1-(2-chloro-4-fluoro-phenyl)-propyl]-amide} 8-[(1-pyrimidin-2-yl-ethyl)-amide]] | 0.28 |
| CC[C@@H](NC(=O)c1cc(C(=O)N[C@H](CO)C(C)C)n2c1COCC2)c1ccccc1 [16iz, 3,4-Dihydro-1H-pyrrolo[2,1-c][1,4]oxazine-6,8-dicarboxylic acid 6-[((S)-1-hydroxymethyl-2-methyl-propyl)-amide] 8-[((R)-1-phenyl-propyl)-amide]] | 1.9 |
| CC[C@@H](NC(=O)c1cc(C(=O)N2CCC[C@@H]2C)n2c1COCC2)c1cccc(OC)n1 [16z, 6-((S)-2-Methyl-pyrrolidine-1-carbonyl)-3,4-dihydro-1H-pyrrolo[2,1-c][1,4]oxazine-8-carboxylic acid [(R)-1-(6-methoxy-pyridin-2-yl)-propyl]-amide] | 0.27 |
| CC[C@@H](NC(=O)c1cc(C(=O)N(C)[C@@H](C)C(=O)OC(C)C)n2c1COCC2)c1ccccc1 [16ja, (S)-2-{Methyl-[8-((R)-1-phenyl-propylcarbamoyl)-3,4-dihydro-1H-pyrrolo[2,1-c][1,4]oxazine-6-carbonyl]-amino}-propionic acid isopropyl ester] | 0.1 |
| CC[C@H](NC(=O)c1cc(C(=O)N[C@H](CC)c2ncccn2)c2n1CCOC2)c1ccccc1 [16kb, 3,4-Dihydro-1H-pyrrolo[2,1-c][1,4]oxazine-6,8-dicarboxylic acid 6-[((S)-1-phenyl-propyl)-amide] 8-[((R)-1-pyrimidin-2-yl-propyl)-amide]] | 0.62 |
| CC[C@@H](NC(=O)c1c(C)c(C(=O)N2CCC[C@@H]2C)n2c1COCC2)c1ccc(C(F)(F)F)nc1 [16rx, 7-Methyl-6-((S)-2-methyl-pyrrolidine-1-carbonyl)-3,4-dihydro-1H-pyrrolo[2,1-c][1,4]oxazine-8-carboxylic acid [(R)-1-(6-trifluoromethyl-pyridin-3-yl)-propyl]-amide] | 4.7 |
| CC[C@@H](NC(=O)c1cc(C(=O)N2CC[C@H](F)C2)n2c1COCC2)c1ccccc1 [16fn, 6-((S)-3-Fluoro-pyrrolidine-1-carbonyl)-3,4-dihydro-1H-pyrrolo[2,1-c][1,4]oxazine-8-carboxylic acid ((R)-1-phenyl-propyl)-amide] | 0.16 |
| CC[C@@H](NC(=O)c1cc(C(=O)N[C@H](C)c2ccc(F)cc2)n2c1COCC2)c1ncc(C(F)(F)F)cn1 [16ed, 3,4-Dihydro-1H-pyrrolo[2,1-c][1,4]oxazine-6,8-dicarboxylic acid 6-{[(R)-1-(4-fluoro-phenyl)-ethyl]-amide} 8-{[(R)-1-(5-trifluoromethyl-pyrimidin-2-yl)-propyl]-amide}] | 0.3 |
| CC[C@@H](NC(=O)c1cc(C(=O)N2CCC(c3ccccc3)C2)n2c1CCCC2)c1ccccc1 (stereo partly drawn) [16ms, 3-(3-Phenyl-pyrrolidine-1-carbonyl)-5,6,7,8-tetrahydro-indolizine-1-carboxylic acid ((R)-1-phenyl-propyl)-amide] | 0.55 |

Further lines, results first:

| IC50 [µM] | SMILES |
| --- | --- |
| 1 | CC[C@@H](NC(=O)c1cc(C(=O)N[C@H](CC)c2ccc(C#N)nc2)n2c1COCC2)c1ccccc1 [16ib, 3,4-Dihydro-1H-pyrrolo[2,1-c][1,4]oxazine-6,8-dicarboxylic acid 6-{[(R)-1-(6-cyano-pyridin-3-yl)-propyl]-amide} 8-[((R)-1-phenyl-propyl)-amide]] |
| 0.07 | CC[C@@H](NC(=O)c1cc(C(=O)N[C@@H](C)c2ccc(F)cc2)n2c1COCC2)c1ccccc1 [16ht, 3,4-Dihydro-1H-pyrrolo[2,1-c][1,4]oxazine-6,8-dicarboxylic acid 6-{[(S)-1-(4-fluoro-phenyl)-ethyl]-amide} 8-[((R)-1-phenyl-propyl)-amide]] |
| 0.35 | CC[C@@H](NC(=O)c1cc(C(=O)NCc2ccc(C(=O)OC)cc2)n2c1COCC2)c1ccccc1 [16ir, 4-({[8-((R)-1-Phenyl-propylcarbamoyl)-3,4-dihydro-1H-pyrrolo[2,1-c][1,4]oxazine-6-carbonyl]-amino}-methyl)-benzoic acid methyl ester] |
| 1.31 | CC[C@@H](NC(=O)c1cc(C(=O)NCc2cccc(S(C)(=O)=O)c2)n2c1COCC2)c1ccccc1 [16gv, 3,4-Dihydro-1H-pyrrolo[2,1-c][1,4]oxazine-6,8-dicarboxylic acid 6-(3-methanesulfonyl-benzylamide) 8-[((R)-1-phenyl-propyl)-amide]] |
| 0.044 | CC[C@@H](NC(=O)c1cc(C(=O)N2CCC[C@@H]2C)n2c1COCC2)c1c(F)cccc1F [16t, 6-((S)-2-Methyl-pyrrolidine-1-carbonyl)-3,4-dihydro-1H-pyrrolo[2,1-c][1,4]oxazine-8-carboxylic acid [(R)-1-(2,6-difluoro-phenyl)-propyl]-amide] |
| 0.05 | C[C@@H](NC(=O)c1cc(C(=O)N[C@H](C)c2ccc(F)cc2)n2c1COCC2)c1ccccc1 [16dn, 3,4-Dihydro-1H-pyrrolo[2,1-c][1,4]oxazine-6,8-dicarboxylic acid 6-{[(R)-1-(4-fluoro-phenyl)-ethyl]-amide} 8-[((R)-1-phenyl-ethyl)-amide]] |
| 1.3 | CC[C@@H](NC(=O)c1cc(C(=O)NC2CC2)n2c1COCC2)c1ccccc1 [16gi, 3,4-Dihydro-1H-pyrrolo[2,1-c][1,4]oxazine-6,8-dicarboxylic acid 6-cyclopropylamide 8-[((R)-1-phenyl-propyl)-amide]] |
| 0.12 | CC[C@@H](NC(=O)c1cc(C(=O)N[C@H](CC)c2ncccc2OC)n2c1COCC2)c1ccccc1 [16ia, 3,4-Dihydro-1H-pyrrolo[2,1-c][1,4]oxazine-6,8-dicarboxylic acid 6-{[(R)-1-(3-methoxy-pyridin-2-yl)-propyl]-amide} 8-[((R)-1-phenyl-propyl)-amide]] |
